pEC50: −log10 of the molar value.

The record followed here is patent US10501445B2, “Quinoxalinones and dihydroquinoxalinones as respiratory syncytial virus antiviral agents” (JANSSEN SCIENCES IRELAND UC, priority 2013, dated 2019).

Data set [1] has as its system rgRSV224 virus. The data set can be described thus: Antiviral activity: rgRSV224 (GFP-expressing RSV) replication in HeLa cells, GFP expression readout. It counts as cell-based. The following applies: human respiratory syncytial virus, 72 h, read-out: WT activity EC50. The method, then: (§1) Black 96-well clear-bottom microtiter plates (Corning, Amsterdam, The Netherlands) were filled in duplicate using a customized robot system with serial 4-fold dilutions of compound in a final volume of 50 μl culture medium [RPMI medium without phenol red, 10% FBS, 0.04% gentamycin (50 mg/ml) and 0.5% DMSO]. Then, 100 μl of a HeLa cell suspension (5×10^4 cells/ml) in culture medium was added to each well followed by the addition of 50 μl rgRSV224 (MOI=0.02) virus in culture medium using a multidrop dispenser (Thermo Scientific, Erembodegem, Belgium). rgRSV224 virus is an engineered virus that includes an additional GFP gene (Hallak et al, 2000) and was in-licensed from the NIH (Bethesda, Md., USA). Medium, virus- and mock-infected controls were included in each test. Cells were incubated at 37° C. in a 5% CO2 atmosphere. Three days post-virus exposure, viral replication was quantified by measuring GFP expression in the cells by a MSM laser microscope (Tibotec, Beerse, Belgium). The EC50 was defined as the 50% inhibitory concentration for GFP expression. In parallel, compounds were incubated for three days in a set of white 96-well microtitier plates (Corning) and the cytotoxicity of compounds in HeLa cells was determined by measuring the ATP content of the cells using the ATPlite kit (PerkinElmer, Zaventem, Belgium) according to the manufacturer's instructions. The CC50 was defined as the 50% concentration for cytotoxicity.

Data set [2] in a line: in vitro. Format: cell-based. The following applies: human. The method, then:
as §1

The pEC50 is the negative decadic logarithm of the EC50, by convention in mol/L. The CC50 is the concentration that lowers cell viability or growth by half. Read a high CC50 as better tolerance by the cells. `O=c1cnc2ccc(F)cc2n1Cc1nc2cc(F)ccc2n1CCCCF` [Compound P9, 7-fluoro-1-((5-fluoro-1-(4-fluorobutyl)-1H-benzo[d]imidazol-2-yl)methyl)quinoxalin-2(1H)-one]: in data set [1], the pEC50 was 6.57. The compound further yielded a CC50 at 3 days in data set [2] greater than 100000 nM.
The like results for `CS(=O)(=O)CCCn1c(Cn2c(=O)cnc3cc(F)ccc32)cc2cc(Br)ccc21` [Compound P29, 1-((5-bromo-1-(3-(methylsulfonyl)propyl)-1H-indol-2-yl)methyl)-6-fluoroquinoxalin-2(1H)-one] were, in that order, 7.26 and 9730 nM.
